The target of test [1] is Muscarinic acetylcholine receptor. Nature of the test: In vitro binding affinity to the Muscarinic acetylcholine receptor by displacing [3H]OXO-M from the rat brain tissues.
Test [2] shares this target. Nature of the test: In vitro binding affinity to the Muscarinic acetylcholine receptor by displacing [3H]-QNB from the rat heart tissues. The format is protein assay.
Test [3] has the same target. In words: In vitro binding affinity to the Muscarinic acetylcholine receptor by displacing [3H]QNB from the rat brain tissues.
Test [4] deals with Muscarinic acetylcholine receptors (Rattus norvegicus). In words: Relative efficacy and M1 selectivity by agonist index.
Test [5] addresses Muscarinic acetylcholine receptor. In words: In vitro binding affinity to the Muscarinic acetylcholine receptor by displacing [3H]PZ from the rat brain tissues.
The target in test [6] is T1, Muscarinic acetylcholine receptor M2 (Homo sapiens, UniProt P08172).
T1 sequence (P08172 whole entry): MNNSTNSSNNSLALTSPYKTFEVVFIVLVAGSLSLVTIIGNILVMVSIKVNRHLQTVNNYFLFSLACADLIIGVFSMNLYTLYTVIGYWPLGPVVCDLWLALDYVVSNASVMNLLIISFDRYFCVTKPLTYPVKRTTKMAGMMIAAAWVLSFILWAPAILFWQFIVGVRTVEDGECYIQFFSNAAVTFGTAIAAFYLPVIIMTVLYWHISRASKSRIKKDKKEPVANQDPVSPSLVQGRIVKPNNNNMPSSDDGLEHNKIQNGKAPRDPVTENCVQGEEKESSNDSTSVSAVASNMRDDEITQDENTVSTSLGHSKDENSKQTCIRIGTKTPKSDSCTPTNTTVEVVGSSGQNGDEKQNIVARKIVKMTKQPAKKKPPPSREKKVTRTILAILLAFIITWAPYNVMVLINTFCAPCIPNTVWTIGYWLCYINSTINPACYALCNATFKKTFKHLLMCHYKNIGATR
Nature of the test: In Vitro activity at the cloned Human Muscarinic acetylcholine receptor M2 determined by receptor selection and amplification technology (R-SAT).

The target of test [7] is T2, Muscarinic acetylcholine receptor M4 (Homo sapiens, UniProt P08173).
T2 sequence (P08173 whole entry): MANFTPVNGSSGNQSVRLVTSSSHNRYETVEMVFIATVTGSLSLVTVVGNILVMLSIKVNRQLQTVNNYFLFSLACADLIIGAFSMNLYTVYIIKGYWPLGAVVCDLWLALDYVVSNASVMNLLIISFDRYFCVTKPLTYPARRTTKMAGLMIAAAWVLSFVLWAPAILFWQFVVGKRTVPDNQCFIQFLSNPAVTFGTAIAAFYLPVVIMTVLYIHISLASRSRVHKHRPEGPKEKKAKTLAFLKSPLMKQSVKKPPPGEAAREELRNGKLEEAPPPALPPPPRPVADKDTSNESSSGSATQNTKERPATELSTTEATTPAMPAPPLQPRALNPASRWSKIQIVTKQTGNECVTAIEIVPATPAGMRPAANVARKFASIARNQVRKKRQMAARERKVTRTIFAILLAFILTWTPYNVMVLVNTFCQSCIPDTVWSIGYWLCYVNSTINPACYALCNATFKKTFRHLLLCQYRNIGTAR
In words: In Vitro activity at the cloned Human Muscarinic acetylcholine receptor M4 determined by receptor selection and amplification technology (R-SAT).

Test [8] addresses T3, Muscarinic acetylcholine receptor M5 (Homo sapiens, UniProt P08912).
T3 sequence (P08912 whole entry): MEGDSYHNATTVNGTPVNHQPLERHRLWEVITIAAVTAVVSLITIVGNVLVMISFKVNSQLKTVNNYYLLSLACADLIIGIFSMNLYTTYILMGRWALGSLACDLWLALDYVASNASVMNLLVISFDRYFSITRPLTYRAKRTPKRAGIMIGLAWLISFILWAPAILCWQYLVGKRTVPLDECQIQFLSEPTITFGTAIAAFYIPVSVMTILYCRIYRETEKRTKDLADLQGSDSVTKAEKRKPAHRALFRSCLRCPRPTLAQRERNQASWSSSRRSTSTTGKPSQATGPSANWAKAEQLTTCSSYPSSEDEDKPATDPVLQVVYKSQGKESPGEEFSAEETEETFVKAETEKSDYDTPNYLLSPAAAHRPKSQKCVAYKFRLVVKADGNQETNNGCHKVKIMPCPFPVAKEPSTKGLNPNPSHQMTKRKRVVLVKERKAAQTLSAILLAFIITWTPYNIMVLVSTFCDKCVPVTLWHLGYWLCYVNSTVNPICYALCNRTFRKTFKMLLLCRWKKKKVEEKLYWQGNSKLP
In words: In Vitro activity at the cloned Human Muscarinic acetylcholine receptor M5 determined by receptor selection and amplification technology (R-SAT).

In test [9] the target is Muscarinic acetylcholine receptor M3 (Homo sapiens, UniProt P20309). Nature of the test: In Vitro activity at the cloned Human Muscarinic acetylcholine receptor M3 determined by receptor selection and amplification technology (R-SAT).
In test [10] the target is T4, Muscarinic acetylcholine receptor M1 (Homo sapiens, UniProt P11229).
T4 sequence (P11229 whole entry): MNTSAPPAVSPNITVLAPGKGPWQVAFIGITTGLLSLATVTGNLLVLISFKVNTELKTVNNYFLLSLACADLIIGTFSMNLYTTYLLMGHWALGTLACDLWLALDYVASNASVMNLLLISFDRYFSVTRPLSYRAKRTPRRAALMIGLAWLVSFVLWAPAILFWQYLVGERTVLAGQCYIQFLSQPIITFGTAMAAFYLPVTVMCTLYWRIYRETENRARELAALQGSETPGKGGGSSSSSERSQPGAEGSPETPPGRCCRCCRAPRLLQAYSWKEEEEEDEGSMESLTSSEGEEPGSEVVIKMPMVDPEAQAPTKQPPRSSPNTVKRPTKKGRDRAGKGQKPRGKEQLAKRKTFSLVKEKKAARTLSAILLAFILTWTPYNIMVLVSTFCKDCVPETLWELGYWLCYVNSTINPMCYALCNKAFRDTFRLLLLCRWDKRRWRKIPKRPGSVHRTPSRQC
Nature of the test: In Vitro evaluation activity at the cloned Human Muscarinic acetylcholine receptor M1 determined by receptor selection and amplification technology (R-SAT).

Test [11] addresses Muscarinic acetylcholine receptor. In words: In vitro binding affinity to the Muscarinic acetylcholine receptor by displacing [3H]- Oxo-M from the rat brain tissues.

Sequence of Muscarinic acetylcholine receptor M3 (P20309 whole entry): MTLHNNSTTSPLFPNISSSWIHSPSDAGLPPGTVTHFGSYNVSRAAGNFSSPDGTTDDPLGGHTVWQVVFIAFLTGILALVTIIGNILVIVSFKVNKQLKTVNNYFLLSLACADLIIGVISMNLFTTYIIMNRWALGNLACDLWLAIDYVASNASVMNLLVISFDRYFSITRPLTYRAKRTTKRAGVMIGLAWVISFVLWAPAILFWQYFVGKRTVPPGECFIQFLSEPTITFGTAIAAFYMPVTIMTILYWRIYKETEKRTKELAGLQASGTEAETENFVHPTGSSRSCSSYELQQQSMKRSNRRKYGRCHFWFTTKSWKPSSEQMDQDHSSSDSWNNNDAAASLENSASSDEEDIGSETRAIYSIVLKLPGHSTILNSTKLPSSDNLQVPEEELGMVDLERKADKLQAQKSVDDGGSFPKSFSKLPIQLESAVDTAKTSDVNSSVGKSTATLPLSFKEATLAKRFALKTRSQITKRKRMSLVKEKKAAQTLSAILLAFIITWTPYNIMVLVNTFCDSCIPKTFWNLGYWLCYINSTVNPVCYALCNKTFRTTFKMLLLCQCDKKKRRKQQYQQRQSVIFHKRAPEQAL

For orientation: IC50 means the midpoint of a concentration-inhibition curve. For `CC(C)Oc1noc2c1CNCCC2`, the IC50 in test [1] worked out at 0.011 µM; in test [2], 0.36 µM; in test [3] it was 0.37 µM; in [5], 0.013 µM. Also, the Agonist index in test [4] turned out to be 5.4.

The EC50 is the midpoint of the concentration-response curve. Lower therefore signals higher potency in that assay. Turning to `COc1noc2c1CNCCC2`, the EC50 in test [6] stood at 0.043 µM; in [7], 0.24 µM; in test [8] it was 4.7 µM; in [9], 0.62 µM; in test [10] it was 0.46 µM. Further, the IC50 came to 0.01 µM in test [1], 0.35 µM in [2], 6.4 µM in test [3] and 0.39 µM in [5]. In test [4], this molecule registered an Agonist index of 104.

Consider `O=C1CCCN1CC#CCN1CCCC1` [OXOTREMORINE], for which the IC50 in test [2] stood at 0.084 µM; in test [3], 2.3 µM; in [11], 0.0012 µM; in [5], 0.093 µM.

As to `C#CCOc1noc2c1CNCCC2`, the EC50 worked out at 0.0067 µM in [6]; 0.03 µM in test [7]; 0.95 µM in test [8]; 0.13 µM in test [9]; 0.14 µM in test [10]. Besides, the IC50 came to 0.00075 µM in test [1], 0.082 µM in test [2], 0.48 µM in test [3] and 0.023 µM in [5]. The molecule also displayed an Agonist index in [4] of 104.

On to `CCOc1noc2c1CNCCC2`, for which the EC50 worked out at 0.041 µM in test [6], 0.067 µM in test [7], 0.5 µM in test [9] and 0.095 µM in [10]. In addition, the IC50 came to 0.0034 µM in test [1], 0.14 µM in test [2], 0.53 µM in [3] and 0.018 µM in test [5]. In [4], the Agonist index worked out at 25.
